Source: ChEMBL document CHEMBL2390861, “Caffeic acid derivatives: a new type of influenza neuraminidase inhibitors” (Bioorg Med Chem Lett, 2013)

Tests used:
[1] = Cytotoxicity against chicken embryo fibroblast after 2 days by MTS assay; assay type: cell-based, Gallus gallus; details: chicken embryo fibroblasts
Neuraminidase [2] = biological target: T1, Neuraminidase (Influenza A virus, UniProt B4URF0); assay: Inhibition of Influenza A virus (A/chicken/Sandong/Li/2008(H9N2)) neuraminidase N2 using 4-MU-NANA as substrate after 5 mins by fluorescence assay
Neuraminidase [3] = biological target: T1, Neuraminidase; assay: Inhibition of Influenza A virus H1N1 A/duck/China/QJ/01 neuraminidase N1 using 4-MU-NANA as substrate after 5 mins by fluorescence assay
Influenza A virus = assay: Antiviral activity against Influenza A virus (A/chicken/Sandong/Li/2008(H9N2)) infected in chicken embryo fibroblast assessed as protection against virus-induced cytopathic effect after 2 days by MTS assay; assay type: functional, organism-based; details: 48 h
[4] = biological target: Neuraminidase (Influenza A virus) (UniProt B4URF0); assay: Inhibition of Influenza A virus H1N1 A/duck/China/QJ/01 neuraminidase N1 using 4-MU-NANA as substrate at 100 uM after 5 mins by fluorescence assay
Neuraminidase [5] = biological target: T1, Neuraminidase; assay: Non-competitive inhibition of Influenza A virus (A/chicken/Sandong/Li/2008(H9N2)) neuraminidase N2 using 4-MU-NANA as substrate by Lineweaver-Burk plot analysis
Neuraminidase [6] = biological target: T1, Neuraminidase; assay: Inhibition of Influenza A virus H9N2 neuraminidase
Neuraminidase [7] = biological target: T1, Neuraminidase; assay: Inhibition of Influenza A virus H1N1 neuraminidase

Row | SMILES | CC50 at 48 h [1] [µM] | IC50 (Neuraminidase [2]) [µM] | IC50 (Neuraminidase [3]) [µM] | also measured
1 | CC(C)C(=O)Nc1cc(NC(=O)/C=C/c2ccc(O)c(O)c2)ccc1OCC(=O)O | 94.3 | 13 | 11.6 | –
2 | CCC(CC)C(=O)Nc1cc(NC(=O)/C=C/c2ccc(O)c(O)c2)ccc1O | > 100 | 20.7 | 22.8 | EC50 (Influenza A virus): 22.6 µM
3 | CC(=O)Nc1cc(NC(=O)/C=C/c2ccccc2)ccc1O | – | – | – | inhibition [4]: 40.2%
4 | O=C(/C=C/c1ccc(O)c(O)c1)Nc1ccc(O)c(NC(=O)C2CC2)c1 | – | 24.7 | 18.2 | –
5 | O=C(/C=C/c1ccc(O)c(O)c1)NCCC[C@H](NC(=O)Cc1ccccc1)C(=O)O | 87.7 | 28.1 | 30.2 | –
6 | CC(C)C(=O)Nc1cc(NC(=O)/C=C/c2ccccc2)ccc1O | – | – | – | inhibition [4]: 47.2%
7 | CCC(CC)C(=O)Nc1cc(NC(=O)/C=C/c2ccc(O)c(O)c2)ccc1OCC(=O)O | > 100 | 7.2 | 8.5 | Ki (Neuraminidase [5]): 11.5 µM; EC50 (Influenza A virus): 31.2 µM
8 | O=C(/C=C/c1ccc(O)c(O)c1)N[C@@H](Cc1ccccc1)C(=O)O | – | 39.6 | 37.4 | –
9 | O=C(/C=C/c1ccc(O)c(O)c1)CC(=O)/C=C/c1ccc(O)c(O)c1 | – | – | – | IC50 (Neuraminidase [6]): 63.8 µM
10 | CCC(=O)N[C@@H](CCCNC(=O)/C=C/c1ccc(O)c(O)c1)C(=O)O | – | 37.9 | 31.3 | –
11 | O=C(/C=C/c1ccc(O)c(O)c1)NCCC[C@H](NC(=O)c1ccccc1)C(=O)O | – | 37.2 | 34.3 | –
12 | O=C(O)CCCNC(=O)/C=C/c1ccc(O)c(O)c1 | – | 16.8 | 27.7 | –
13 | O=C(/C=C/c1ccccc1)Nc1ccc(O)c(NC(=O)C2CC2)c1 | – | – | – | inhibition [4]: 42.6%
14 | CC(C)[C@H](NC(=O)/C=C/c1ccc(O)c(O)c1)C(=O)O | – | 37.3 | 38.3 | –
15 | COc1cc(O)ccc1C(=O)/C=C/c1ccc(O)cc1 | – | – | – | IC50 (Neuraminidase [7]): 24.3 µM
16 | CCC(=O)Nc1cc(NC(=O)/C=C/c2ccccc2)ccc1O | – | – | – | inhibition [4]: 42.9%
17 | O=C(/C=C/c1ccc(O)cc1)CC(=O)/C=C/c1ccc(O)c(O)c1 | – | – | – | IC50 (Neuraminidase [6]): 64.1 µM
18 | CCC(CC)C(=O)Nc1cc(NC(=O)/C=C/c2ccccc2)ccc1O | – | – | – | inhibition [4]: 45.2%
19 | O=C(O)CCNC(=O)/C=C/c1ccc(O)c(O)c1 | > 100 | 13.5 | 27.3 | EC50 (Influenza A virus): > 100 µM
20 | CCC(=O)Nc1cc(NC(=O)/C=C/c2ccc(O)c(O)c2)ccc1O | > 100 | 23.6 | 17.6 | EC50 (Influenza A virus): 58.6 µM
21 | CC(C)(C)OC(=O)N[C@@H](CCCNC(=O)/C=C/c1ccc(O)c(O)c1)C(=O)O | – | 33.6 | 34.7 | –
22 | CC(=O)Nc1cc(NC(=O)/C=C/c2ccc(O)c(O)c2)ccc1OCC(=O)O | 60.4 | 15.4 | 12.2 | –
23 | O=C(O)COc1ccc(NC(=O)/C=C/c2ccc(O)c(O)c2)cc1NC(=O)C1CC1 | 86.7 | 16.5 | 13.8 | –
24 | O=C(O)CNC(=O)/C=C/c1ccc(O)c(O)c1 | – | 43.3 | 49.5 | –
25 | CC(C)C(=O)Nc1cc(NC(=O)/C=C/c2ccc(O)c(O)c2)ccc1O | – | 20.4 | 19 | –
26 | O=C(/C=C/c1ccc(O)c(O)c1)N[C@@H](Cc1c[nH]c2ccccc12)C(=O)O | 89.5 | 27.2 | 30.1 | EC50 (Influenza A virus): > 100 µM
27 | CCC(CC)C(=O)N[C@@H](CCCNC(=O)/C=C/c1ccc(O)c(O)c1)C(=O)O | – | 44.2 | 39.2 | –
28 | CC(=O)Nc1cc(NC(=O)/C=C/c2ccc(O)c(O)c2)ccc1O | 78.2 | 27.4 | 17.7 | –
29 | CC(C)C(=O)N[C@@H](CCCNC(=O)/C=C/c1ccc(O)c(O)c1)C(=O)O | 65 | 30.3 | 31.9 | –
30 | CCOC(=O)C1=C[C@@H](OC(CC)CC)[C@H](NC(C)=O)[C@@H](N)C1 [OSELTAMIVIR] | > 10 | – | – | EC50 (Influenza A virus): 0.5 µM
